# Entries after “also recorded” stand apart in the source; their conditions may differ.
# How the values were obtained:
# [1] = test system: A. thaliana; assay: Growth and toxicity tests on A. thaliana (genotype not stated); format: in vivo; conditions: for Effect on growth of A. thaliana: in vivo
# Description: (§1) Presumably endogenous transaminase may be specific for the L-enantiomer, so the corresponding D-enantiomer is not metabolized in wildtype plants, but only in plants expressing DAAO. […] The toxicity of some D-amino acids on organisms is not well understood, and has only occasionally been studied in plants (Gamburg K Z & Rekoslavskaya N I (1991) Fiziologiya Rastenii 38, 1236-1246). Apart from A. thaliana, we have also tested the susceptibility of other plant species to D-serine, including poplar, tobacco, barley, maize, tomato and spruce. We found all tested species susceptible to D-serine at concentrations similar to those shown to be toxic for A. thaliana. A proposed mechanism for D-serine toxicity in bacteria is competitive inhibition of […] coupling to pantoic acid, thus inhibiting formation of pantothenic acid (Cosloy S D & McFall E (1973) J. Bacteriol. 114, 685-694). […] A second putative cause of D-amino acid toxicity is through competitive binding to tRNA. […] Genes similar to that encoding bacterial deacylase have also been identified. in A. thaliana (Soutourina J et al. (1996) J. Biol. Chem. 274, 19109-19114), corroborating the possibility that the mode of toxic action of D-amino acids might be through competitive binding to tRNA.
# [2] = test system: DAAO transgenic plants; assay: Germination of DAAO transgenic plants on D-Asn; format: in vivo; conditions: 30 mM
# Description: The D-amino acid oxidase of the invention may be expressed in the cytosol, peroxisome, or other intracellular compartment of the plant cell. Compartmentalisation of the D-amino acid metabolising polypeptide may be achieved by fusing the nucleic acid sequence encoding the DAAO polypeptide to a sequence encoding a transit peptide to generate a fusion protein. Gene products expressed without such transit peptides generally accumulate in the cytosol. The localization of expressed DAAO in the peroxisome produces H2O2 that can be metabolised by the H2O2 degrading enzyme catalase. Higher levels of D-amino acids may therefore be required to produce damaging levels of H2O2. Expression of DAAO in the cytosol, where levels of catalase activity are lower, reduces the amount of D-amino acid required to produce damaging levels H2O2. Expression of DAAO in the cytosol may be achieved by removing peroxisome targeting signals or transit peptides from the encoding nucleic acid sequence. For example, the dao1 gene (EC: 1.4.3.3: GenBank Acc.-No.: U60066) from the yeast Rhodotorula gracilis (Rhodosporidium toruloides) was cloned as described (WO 03/060133). The last nine nucleotides encode the signal peptide SKL, which guides the protein to the peroxisome sub-cellular organelle.
# [3] = test system: wild-type seedlings; assay: Sprayed (foliar) application on wild-type seedlings; format: in vivo, A. thaliana; conditions: one-week-old seedlings, sprayed on three consecutive days, 50 mM
# Description: (§2) Selection of seedlings on media containing D-alanine or D-serine was very rapid compared to selection on kanamycin. […] Therefore, transformants could be distinguished from non-transformed plants directly after germination. The difference between wild-type and transgenic plants after D-amino acid selection was unambiguous, with no intermediate phenotypes. In contrast, intermediate phenotypes are common when kanamycin resistance is used as a selection marker. […] Transgenic seedlings were resistant to foliar application of D-alanine or D-serine, so selection on soil was possible.
# [4] = test system: dao1 transgenic A. thaliana; assay: Growth of dao1 (DAAO) transgenic A. thaliana on medium with D-amino acids; format: in vivo, Arabidopsis thaliana; conditions: for Effect on the transgenic plants: concentration of 30 mM; for Development of transgenic plants under selection conditions: in vivo
# Experimental: (§3) FIG. 4 D-amino acid dose responses of dao1 transgenic and wild-type A. thaliana. (a-d) Growth of dao1 transgenic line 3:7 (white), 10:7 (light gray), 13:4 (gray) and wild-type (black) plants, in fresh weight per plant, on media containing various concentrations of D-serine, D-alanine, D-isoleucine and D-valine in half-strength MS with 0.5% (wt/vol) sucrose and 0.8% (wt/vol) agar. Different concentration ranges were used for different ID-amino acids. The plants were grown for 10 d after germination under 16 h photoperiods at 24° C.; n=10±s.e.m., except for plants grown on D-isoleucine, where smaller Petri dishes were used, (n=6±s.e.m.).
# (§4) T1 seeds of transgenic Arabidopsis plants were surface-sterilized and sown in Petri plates that were sealed with gas-permeable tape. The growth medium was half strength MS19 with 0.5% (wt/vol) sucrose and 0.8% (wt/vol) agar, plus 3 mM D-alanine, 3 mM D-serine or 50 μg/ml kanamycin as the selective agent. Plants were grown for 5 d after germination with a 16 h photoperiod at 24° C. To evaluate the selection efficiency on different substrates, 2,074, 1,914 and 1,810 T1 seeds were sown on D-alanine-, D-serine- and kanamycin-selective plates, respectively, and the number of surviving seedlings was counted (44, 32 and 43, respectively).
# (§5) The T-DNA contained both 35S:dao1 and pNos:nptII, allowing D-amino acid and kanamycin selection to be compared in the same lot of seeds.
# Therefore, plants containing the construct were tested as described above on two sets of media, one containing D-isoleucine and the other containing D-valine at various concentrations, to assess whether DAAO could also be used as a counter-selection marker. Unambiguous counter-selection selection was achieved when seeds were sown on either D-isoleucine or D-valine at concentrations greater than 10 mM (FIG. 4 c,d).
# [5] = test system: T1 seeds of transgenic Arabidopsis plants; assay: Selection of T1 seeds on selective media; format: in vivo; conditions: for Number of surviving seedlings: 2,074, 1,914 and 1,810 T1 seeds sown on D-alanine (3 mM), D-serine (3 mM) and kanamycin (50 μg/ml) plates, 5 d after germination; for Transformation frequencies found on the selective media: kanamycin 50 μg/ml, D-alanine 3 mM, D-serine 3 mM
# Experimental: as §4, §5
# [6] = test system: Transgenic seedlings; assay: Foliar application on transgenic seedlings; design: species or system A. thaliana; conditions: in vivo
# Description: as §2
# [7] = test system: wild-type Arabidopsis thaliana; assay: Growth of wild-type A. thaliana plantlets on medium with D-amino acids; format: in vivo; conditions: for Effect on plant growth (FIG. 3): 3 mM in half-concentrated Murashige-Skoog medium, wild type plantlets; for Growth of wild-type plants on selection media: immediately after the cotyledons had emerged; for Growth of wild-type plants (FIG. 4): various concentrations in half-strength MS, 10 d after germination
# Experimental: Wild type Arabidopsis thaliana plantlets were grown on half-concentrated Murashige-Skoog medium (0.5% (wt/vol) sucrose, 0.8% (wt/vol) agar) supplemented with the indicated D-amino acid at either 3 mM (Panel A) or 30 mM (Panel B).
# as §3, §4
# [8] = test system: poplar; assay: Susceptibility of other plant species to D-serine; format: in vivo; conditions: concentrations similar to those toxic for A. thaliana
# Description: as §1
# [9] = test system: tobacco; assay: Susceptibility of other plant species to D-serine; format: in vivo; conditions: concentrations similar to those toxic for A. thaliana
# Description: as §1
# [10] = test system: maize; assay: Susceptibility of other plant species to D-serine; format: in vivo; conditions: concentrations similar to those toxic for A. thaliana
# Description: as §1
# [11] = test system: barley; assay: Susceptibility of other plant species to D-serine; format: in vivo; conditions: concentrations similar to those toxic for A. thaliana
# Description: as §1
# [12] = test system: spruce; assay: Susceptibility of other plant species to D-serine; format: in vivo; conditions: concentrations similar to those toxic for A. thaliana
# Description: as §1
# [13] = test system: tomato; assay: Susceptibility of other plant species to D-serine; format: in vivo; conditions: concentrations similar to those toxic for A. thaliana
# Description: as §1
# [14] = molecular target: T1, DAAO (Rhodotorula toruloides, UniProt P80324); assay: DAAO incubation of cell-free plant extracts, keto acid production by HPLC; format: biochemical, Rhodotorula gracilis; conditions: cell-free extracts from dao1 transgenic line 10:7
# T1 construct: expressed in transfected cells; host or cells: Arabidopsis thaliana (Col-0), dao1 transgenic line 10:7, transformed with pPCV702:dao1 (CaMV 35S); crude soluble protein extract
# T1 sequence (P80324 25-368): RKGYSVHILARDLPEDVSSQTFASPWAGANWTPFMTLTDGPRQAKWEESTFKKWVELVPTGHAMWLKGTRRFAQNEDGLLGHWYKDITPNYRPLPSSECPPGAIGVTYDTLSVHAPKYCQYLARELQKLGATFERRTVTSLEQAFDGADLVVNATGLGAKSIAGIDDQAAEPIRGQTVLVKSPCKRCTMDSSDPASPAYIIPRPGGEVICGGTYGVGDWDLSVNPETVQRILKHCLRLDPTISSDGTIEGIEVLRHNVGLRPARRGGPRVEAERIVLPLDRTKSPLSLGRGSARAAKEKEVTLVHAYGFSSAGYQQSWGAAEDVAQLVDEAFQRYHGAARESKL
# Experimental: Soluble proteins were extracted by shaking 0.1 g samples of plant material that had been finely pulverized in a 1.5 ml Eppendorf tube in 1 ml of 0.1 M potassium phosphate buffer, pH 8. DAAO activity was then assayed as follows. Reaction mixtures were prepared containing 2,120 μl of 0.1 M potassium phosphate buffer, pH 8, 80 μl of crude protein extract and 100 μl of 0.3 M D-alanine. The samples were incubated for 2 h at 30° C. The enzyme activity was then assessed, by measuring the increase in absorbance at 220 nm (E=1.090 M^−1 cm^−1) associated with the conversion of D-alanine to pyruvate, after transferring the test tubes to boiling water for […] to stop the reaction. In control reactions, D-alanine was added immediately before boiling. One unit of DAAO activity is defined as the turnover of one micromole of substrate per minute, and activity was expressed per gram plant biomass (fresh weight). The breakdown of D-isoleucine and D-valine in DAAO incubations, and the associated production of 3-methyl-2-oxopentanoate and 3-methyl-2-oxobutanoate, were analyzed by high-performance liquid chromatography. In other respects the reactions were carried out as described above.
# Presumably endogenous transaminase may be specific for the L-enantiomer, so the corresponding D-enantiomer is not metabolized in wildtype plants, but only in plants expressing DAAO. […]
smiles,measurement,setting,value
"CC(C)C(=O)C(=O)O [3-methyl-2-oxobutanoate, 3-methyl-2-oxobutanoate]",Effect on growth of A. thaliana,[1],impaired growth
CCC(C)C(=O)C(=O)O (stereo not drawn) [3-methyl-2-oxopentanoate],Effect on growth of A. thaliana,[1],impaired growth
"NC(=O)C[C@@H](N)C(=O)O [D-Asn, D-asparagine]",Inhibition of germination of DAAO transgenic plants (cytosolic and peroxisomal constructs),[2],inhibited significantly more than the wild-type
C[C@@H](N)C(=O)O [D-alanine],Effect of sprayed application on wild-type seedlings,[3],effectively killed
same,Effect on the transgenic plants,[4],no negative effect
same,Development of transgenic plants under selection conditions,[4],developed normally
same,Effect on transgenic plantlets comprising DAAO gene (FIG. 2),[4]; treated with 30 mM,no severe damage
same,Number of surviving seedlings,[5],44
same,Transformation frequencies found on the selective media,[5],2.12%
same,Response of transgenic seedlings to foliar application,[6],resistant
same,Effect on plant growth (FIG. 3),[7],severe phytotoxic effects
same,Growth of wild-type plants on selection media,[7],inhibited growth
same,Effect on wild-type plantlets (FIG. 2),[7]; treated with 30 mM,toxic effect
same,Growth of wild-type plants (FIG. 4),[7],inhibited even at quite low concentrations
N[C@H](CO)C(=O)O [D-serine],Mitigation of toxicity in A. thaliana by pantothenic acid or a-alanine,[1]; pantothenic acid or a-alanine provided,could not be mitigated
same,Susceptibility of poplar,[8],susceptible
same,Susceptibility of tobacco,[9],susceptible
same,Susceptibility of maize,[10],susceptible
same,Susceptibility of barley,[11],susceptible
same,Susceptibility of spruce,[12],susceptible
same,Susceptibility of tomato,[13],susceptible
same,Effect of sprayed application on wild-type seedlings,[3],effectively killed
same,Effect on growth of the transgenic plants,[4]; 3 mM,slightly inhibited the growth
same,Effect on the transgenic plants,[4],significant growth inhibition
same,Development of transgenic plants under selection conditions,[4],developed normally
same,Number of surviving seedlings,[5],32
same,Concentration at which efficient selection was achieved (FIG. 4a),[5]; in vivo,lower than 1 mM
same,Transformation frequencies found on the selective media,[5],1.67%
same,Response of transgenic seedlings to foliar application,[6],resistant
same,Effect on plant growth (FIG. 3),[7],severe phytotoxic effects
same,Growth of wild-type plants on selection media,[7],inhibited growth
same,Growth of wild-type plants (FIG. 4),[7],inhibited even at quite low concentrations
CC(C)[C@@H](N)C(=O)O [D-valine],Increase in production of 3-methyl-2-oxobutanoate compared to extracts of wild-type plants,[14],7 fold
same,Growth of plants expressing DAAO (FIG. 4),"[4]; various concentrations in half-strength MS, 10 d after germination",strong negative influence on the growth; also recorded: inhibit growth
same,Effect on wild-type plants at higher concentrations (FIG. 4d),[7]; higher concentrations,moderately negative effect
same,Growth of wild-type plants (FIG. 4),[7],not toxic; also recorded: minor effects; also recorded: not the wild-type plants
CC[C@H](C)[C@H](N)C(=O)O [L-isoleucine],Effects on wildtype plants,[7]; in vivo,negative effects
NC[C@H]1O[C@H](O[C@H]2[C@H](O)[C@@H](O[C@H]3O[C@H](CO)[C@@H](O)[C@H](N)[C@H]3O)[C@H](N)C[C@@H]2N)[C@H](O)[C@@H](O)[C@@H]1O [kanamycin],Number of surviving seedlings,[5],43
same,Transformation frequencies found on the selective media,[5],2.37%

# From patent publication US20080039328A1, “Post Harvest Control of Genetically Modified Crop Growth Employing D-Amino Acid Compounds” (BASF PLANT SCIENCE GMBH, priority 2004, published 2008)
